≈ marks a conversion by molar mass, not a printed value. Where “and” joins values, the source holds several entries; their conditions need not be identical. Identical values can stand only once. Where only a bound is given, the exact number is not on record here.

Among the test systems are Candida krusei DSM 70079; Enterococcus faecalis; Enterococcus faecalis VR; Pseudomonas aeruginosa; Acinetobacter baumannii; Escherichia coli K88; Klebsiella pneumoniae; Escherichia coli UB1005; Escherichia coli K99; Escherichia coli; Streptococcus sanguinis; Staphylococcus aureus.
Holding throughout (experiment): ≥ marks a high value that may be exact or a test limit, other limits are often not marked, values filed in µg/mL are converted to µM
Assay [1] has as its system Enterococcus faecalis CIP 76.117.
Assay [2] has as its system Listeria monocytogenes CIP 110871.
Assay [3] concerns Staphylococcus aureus CIP 53.156.
In assay [4] the test system is Aeromonas salmonicida CIP 103209T.
For assay [5], the system named is Vibrio vulnificus CIP 109783.
Assay [6] has as its system Escherichia coli CIP 54.8T.
The test system of assay [7] is Candida glabrata ATCC 90030.
Assay [8] deals with Aspergillus fumigatus Af293.
For assay [9], the system named is Aspergillus niger ATCC 9029.
Assay [10] relates to Aspergillus flavus PFCC 100.
Assay [11] relates to Candida albicans ATCC 10231.
In assay [12] the test system is Escherichia coli ATCC 25922.
For assay [13], the system named is Escherichia coli ATCC BAA-2523.
For assay [14], the system named is Pseudomonas aeruginosa ATCC 27853.
Assay [15] deals with Staphylococcus aureus ATCC 43300.
The test system of assay [16] is Staphylococcus aureus ATCC 29213.
Assay [17] concerns Escherichia coli BL21(DE3).
For assay [18], the system named is Pseudomonas aeruginosa CICC 21625.
Assay [19] deals with Salmonella enterica subsp. enterica serovar Typhimurium C77-31.
Assay [20] concerns Salmonella enterica subsp. enterica serovar Pullorum C79-13.
Assay [21] has as its system Pseudomonas aeruginosa CICC 21630.
Assay [22] has as its system Pseudomonas aeruginosa PAO1.
Assay [23] relates to Salmonella enterica subsp. enterica serovar Typhimurium ATCC 14028.

In general, MIC refers to the smallest concentration in the dilution series that meets the test's criterion for growth inhibition. Higher therefore signals a less susceptible organism. On to `CC[C@H](C)[C@H](NC(=O)[C@H](CC(C)C)NC(=O)[C@H](CC(=O)O)NC(=O)[C@H](Cc1cnc[nH]1)NC(=O)[C@@H](NC(=O)[C@H](CO)NC(=O)[C@H](CCCCN)NC(=O)CNC(=O)[C@@H](NC(=O)[C@H](Cc1cnc[nH]1)NC(=O)[C@H](Cc1ccccc1)NC(=O)[C@H](CC(C)C)NC(=O)CNC(=O)CNC(=O)[C@@H](NC(=O)[C@@H](NC(=O)[C@H](Cc1cnc[nH]1)NC(=O)[C@H](Cc1cnc[nH]1)NC(=O)[C@@H](NC(=O)[C@@H](N)Cc1ccccc1)[C@@H](C)CC)[C@@H](C)CC)[C@@H](C)CC)C(C)C)[C@@H](C)CC)C(=O)N[C@@H](CCCN=C(N)N)C(=O)O` [FIHHIIGGLFHVGKSIHDLIR], for which the MIC is 15.8 µM (≈ 38.1 µg/mL) in [1]; 15.8 µM (≈ 38.1 µg/mL) in [2]; 7.07 µM (≈ 17 µg/mL) in assay [3]; 7.07 µM (≈ 17 µg/mL) in assay [4]; not below 35.4 µM in assay [5]; 15.8 µM (≈ 38.1 µg/mL) in [6].

As to `CC[C@H](C)[C@H](NC(=O)CNC(=O)[C@@H](NC(=O)[C@H](Cc1ccccc1)NC(=O)[C@H](C)NC(=O)[C@H](CCCCN)NC(=O)[C@@H](NC(=O)[C@H](CO)NC(=O)[C@@H](N)CC(C)C)C(C)C)[C@@H](C)O)C(=O)N[C@@H](CCC(N)=O)C(=O)N[C@@H](CC(C)C)C(=O)N[C@@H](CCCN=C(N)N)C(=O)NCC(=O)N[C@H](C(=O)N[C@@H](CS)C(=O)NCC(=O)N[C@H](C(=O)N[C@@H](CCC(=O)O)C(=O)N[C@H](C(=O)N[C@@H](CCCCN)C(=O)N[C@@H](C)C(=O)N[C@@H](CCCN=C(N)N)C(=O)NCC(=O)O)C(C)C)[C@@H](C)CC)C(C)C` [LSVKAFTGIQLRGVCGIEVKARG], the MIC is 6.66 µM (≈ 16 µg/mL) against Candida krusei DSM 70079; 3.33 µM (≈ 8 µg/mL) in assay [7]; 6.66 µM (≈ 16 µg/mL) in assay [8]; 6.66 µM (≈ 16 µg/mL) in assay [9]; 13.3 µM (≈ 32 µg/mL) in [10]; 6.66 µM (≈ 16 µg/mL) in assay [11].

Consider `CC(C)C[C@H](NC(=O)[C@@H](N)CCC(N)=O)C(=O)NCC(=O)N[C@@H](CCCN=C(N)N)C(=O)N[C@@H](CCCN=C(N)N)C(=O)N[C@@H](CCCN=C(N)N)C(=O)N[C@@H](Cc1cnc[nH]1)C(=O)N[C@@H](CCCN=C(N)N)C(=O)N[C@@H](CCCN=C(N)N)C(=O)N[C@@H](CCCN=C(N)N)C(=O)N1CCC[C@H]1C(=O)N[C@@H](CO)C(=O)N[C@@H](CCCN=C(N)N)C(=O)N[C@@H](CCCN=C(N)N)C(=O)N[C@@H](CCCN=C(N)N)C(=O)N[C@@H](CCCN=C(N)N)C(=O)N[C@@H](Cc1cnc[nH]1)C(=O)N[C@@H](Cc1c[nH]c2ccccc12)C(=O)O` [QLGRRRHRRRPSRRRRHW], for which the MIC was 64 µM (≈ 161 µg/mL) in [12]; not below 128 µM in assay [13]; more than 128 µM in assay [14]; not below 32 µM in the assay with Enterococcus faecalis; 16 µM (≈ 40.4 µg/mL) in the assay with Enterococcus faecalis VR; 16 µM (≈ 40.4 µg/mL) in assay [15]. In addition, the MIC worked out at 32 µM (≈ 80.7 µg/mL) in assay [16] and 128 µM (≈ 323 µg/mL) in the assay on Pseudomonas aeruginosa.

With `CC[C@H](C)[C@H](NC(=O)[C@H](CC(C)C)NC(=O)[C@H](CCCN=C(N)N)NC(=O)[C@@H](NC(=O)[C@H](CC(C)C)NC(=O)[C@H](CCCN=C(N)N)NC(=O)[C@@H](N)CCCN=C(N)N)[C@@H](C)CC)C(=O)N[C@@H](CC(C)C)C(=O)N[C@@H](CCCN=C(N)N)C(=O)N[C@@H](CC(C)C)C(=O)N[C@@H](CC(C)C)C(=O)N[C@@H](CCCN=C(N)N)C(N)=O` [RRLIRLILRLLR], the MIC in assay [17] was 4 µM and 8 µM.

With `CC(C)[C@H](N)C(=O)N[C@@H](CCCCN)C(=O)N1CCC[C@H]1C(=O)N[C@H](C(=O)N[C@H](C(=O)N[C@@H](CCCCN)C(=O)N1CCC[C@H]1C(=O)N[C@H](C(=O)N[C@H](C(=O)N[C@@H](CCCCN)C(=O)N1CCC[C@H]1C(=O)N[C@H](C(=O)N[C@H](C(=O)N[C@@H](CCCCN)C(=O)N1CCC[C@H]1C(=O)N[C@H](C(=O)N[C@H](C(=O)N[C@@H](CCCCN)C(=O)N1CCC[C@H]1C(=O)N[C@H](C(=O)N[C@H](C(=O)N[C@@H](CCCCN)C(=O)N1CCC[C@H]1C(=O)N[C@H](C(N)=O)C(C)C)C(C)C)C(C)C)C(C)C)C(C)C)C(C)C)C(C)C)C(C)C)C(C)C)C(C)C)C(C)C` [VKPVVKPVVKPVVKPVVKPVVKPV], the MIC in the assay on Acinetobacter baumannii was not below 64 µM; in assay [12], more than 64 µM; in [18], not below 64 µM; in the assay on Escherichia coli K88, not below 64 µM; in assay [19] it was not below 64 µM; in the assay on Klebsiella pneumoniae, more than 64 µM. Further, the MIC in [20] was not below 64 µM; with Escherichia coli UB1005 it was not below 64 µM; in [14] it was more than 64 µM; in assay [21], not below 64 µM; in the assay with Escherichia coli K99, not below 64 µM; in [22], more than 64 µM. Moreover, the MIC (with Pseudomonas aeruginosa; against Escherichia coli; in [23]) was more than 64 µM throughout.

On to `NC(=O)[C@H](Cc1ccccc1)NC(=O)[C@H](Cc1ccccc1)NC(=O)[C@H](Cc1ccccc1)NC(=O)[C@H](Cc1ccccc1)NC(=O)[C@@H](N)Cc1ccccc1` [FFFFF], for which the values for the minimal inhibitory concentration (MIC) in the assay on Streptococcus sanguinis and with Staphylococcus aureus were not below 36.3 µM and 33.8 µM (≈ 25.5 µg/mL), respectively.

The values are drawn from DBAASP.
